# Biological target: T1, Angiotensin II receptor (Bos taurus, UniProt P25104)
# T1 construct: Angiotensin II receptor membrane fractions were prepared from bovine adrenal cortex; from tissue; host or cells: bovine adrenal cortex membrane fraction
# T1 sequence (P25104 1-359): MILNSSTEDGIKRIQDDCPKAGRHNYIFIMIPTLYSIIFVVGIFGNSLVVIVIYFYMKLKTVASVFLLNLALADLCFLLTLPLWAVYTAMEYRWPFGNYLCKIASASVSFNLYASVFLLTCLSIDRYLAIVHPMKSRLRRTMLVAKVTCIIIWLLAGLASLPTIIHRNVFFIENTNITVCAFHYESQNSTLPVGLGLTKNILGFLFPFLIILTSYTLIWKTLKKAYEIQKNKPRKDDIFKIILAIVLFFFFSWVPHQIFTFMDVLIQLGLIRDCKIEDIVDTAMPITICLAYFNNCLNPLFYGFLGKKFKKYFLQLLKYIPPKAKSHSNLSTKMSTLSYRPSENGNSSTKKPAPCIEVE
# Experiment: Inhibitory effect on binding of angiotensin II to angiotensin receptor (125I-AII radioligand binding, membrane fractions)
# Details: A II receptor membrane fraction from bovine adrenal cortex, room temperature, one hour, compound 10^-9-3x10^-5 M, read-out: Inhibitory Activity against Binding of Angiotensin II IC50
# Method: Inhibitory assay for the binding of angiotensin II to angiotensin receptor was conducted by modifying a method as described by Douglas et al. (Endocrinology, 102, 685-696 (1978)).
# Angiotensin II receptor membrane fractions were prepared from bovine adrenal cortex.
# The compound (I) of the present invention (10^-9-3x10^-5 M) and […] (^125I-AII) (1.8kBq/50µl) were added to the A II receptor membrane fraction and incubated at room temperature for one hour. The bound and free ^125I-AII were separated by a filter (Whatman GF/B filter) each other. The radioactivity of ^125I-All bound on the receptor was measured.
row,IC50,Compound
1,0.28 µM,CCCCc1nc2c(c(=O)n(C)c(=O)n2C)n1Cc1ccc(-c2ccccc2-c2nnn[nH]2)cc1 [Compound 1]
2,0.049 µM,"CCOc1nc2c(c(=O)n(C)c(=O)n2C)n1Cc1ccc(-c2ccccc2-c2nnn[nH]2)cc1 [Compound 2, 8-Ethoxy-1,3-dimethyl-7-[[2'-(1 H-tetrazole-5-yl)-biphenyl-4-yl)methyl)xanthine]"
3,0.062 µM,"CCCCCc1nc2c(c(=O)n(C)c(=O)n2C)n1Cc1ccc(-c2ccccc2C(=O)O)cc1 [Compound 4, 7-(2'-Carboxybiphenyl-4-yl)methyl-8-n-pentyl-1,3-dimethylxanthine]"
4,0.17 µM,CCCc1nc2c(c(=O)n(C)c(=O)n2C)n1Cc1ccc(-c2ccccc2-c2nn[nH]n2)cc1 [Compound 5]
5,0.065 µM,Cn1c(=O)c2c(nc(-c3ccccc3)n2Cc2ccc(-c3ccccc3-c3nn[nH]n3)cc2)n(C)c1=O [Compound 7]
6,0.6 µM,Cn1c(=O)c2c(nc(C3CC3)n2Cc2ccc(-c3ccccc3-c3nn[nH]n3)cc2)n(C)c1=O [Compound 8]
7,0.94 µM,Cn1c(=O)c2c(nc(C3CCCC3)n2Cc2ccc(-c3ccccc3-c3nn[nH]n3)cc2)n(C)c1=O [Compound 9]
8,3.4 µM,Cn1c(=O)c2c(nc(Cc3ccccc3)n2Cc2ccc(-c3ccccc3-c3nn[nH]n3)cc2)n(C)c1=O [Compound 10]
9,0.33 µM,CC(Cc1nc2c(c(=O)n(C)c(=O)n2C)n1Cc1ccc(-c2ccccc2-c2nn[nH]n2)cc1)c1ccccc1 (stereo not shown) [Compound 12]
10,0.049 µM,CCCCc1nc2c(c(=O)n(C)c(=S)n2C)n1Cc1ccc(-c2ccccc2-c2nn[nH]n2)cc1 [Compound 13]
11,0.33 µM,Cn1c(=O)c2c(nc(CCCCc3ccccc3)n2Cc2ccc(-c3ccccc3-c3nn[nH]n3)cc2)n(C)c1=O [Compound 14]
12,0.15 µM,CC(C)Cc1nc2c(c(=O)n(C)c(=O)n2C)n1Cc1ccc(-c2ccccc2-c2nn[nH]n2)cc1 [Compound 15]
13,0.76 µM,CCCCSc1nc2c(c(=S)n(C)c(=O)n2C)n1Cc1ccc(-c2ccccc2-c2nn[nH]n2)cc1 [Compound 17]
14,1.5 µM,CCCSc1nc2c(c(=S)n(C)c(=O)n2C)n1Cc1ccc(-c2ccccc2-c2nn[nH]n2)cc1 [Compound 19]
15,1.5 µM,CCCSc1nc2c(c(=O)n(C)c(=S)n2C)n1Cc1ccc(-c2ccccc2-c2nn[nH]n2)cc1 [Compound 20]
16,0.56 µM,CCCc1nc2c(c(=O)n(CC)c(=O)n2CCC)n1Cc1ccc(-c2ccccc2-c2nn[nH]n2)cc1 [Compound 21]
17,0.84 µM,CCCCc1nc2c(c(=O)n(CC)c(=O)n2CCC)n1Cc1ccc(-c2ccccc2-c2nn[nH]n2)cc1 [Compound 22]
18,1.1 µM,CCCCc1nc2c(c(=O)n(CCC)c(=O)n2CCC)n1Cc1ccc(-c2ccccc2-c2nn[nH]n2)cc1 [Compound 23]
19,0.56 µM,CCCCSc1nc2c(c(=O)n(CCC)c(=O)n2CCC)n1Cc1ccc(-c2ccccc2-c2nnn[nH]2)cc1 [Compound 25]
20,2 µM,CCCCSc1nc2c(c(=O)n(CC)c(=O)n2CCC)n1Cc1ccc(-c2ccccc2-c2nnn[nH]2)cc1 [Compound 26]
21,2.1 µM,CCCCc1nc2c(c(=O)n(CCCC)c(=O)n2CCCC)n1Cc1ccc(-c2ccccc2-c2nnn[nH]2)cc1 [Compound 27]
22,0.19 µM,CCCCc1nc2c(c(=O)n(CCC)c(=O)n2CCCC)n1Cc1ccc(-c2ccccc2-c2nnn[nH]2)cc1 [Compound 28]
23,1 µM,CCCCc1nc2c(c(=O)n(CCCC)c(=O)n2C)n1Cc1ccc(-c2ccccc2-c2nnn[nH]2)cc1 [Compound 29]
24,0.38 µM,CCC=CCc1nc2c(c(=O)n(CCC)c(=O)n2CCC)n1Cc1ccc(-c2ccccc2-c2nnn[nH]2)cc1 [Compound 30]
25,0.11 µM,CCCCc1nc2c(c(=O)n(CC)c(=O)n2CC)n1Cc1ccc(-c2ccccc2-c2nnn[nH]2)cc1 [Compound 31]
26,0.28 µM,CCCCSc1nc2c(c(=O)n(C)c(=O)n2C)n1Cc1ccc(-c2ccccc2C(=O)O)cc1 [Compound 33]
27,0.13 µM,CCCCSc1nc2c(c(=O)n(C)c(=O)n2C)n1Cc1ccc(-c2ccccc2-c2nnn[nH]2)cc1 [Compound 34]
28,1.1 µM,CCOc1nc2c(c(=O)n(CC)c(=O)n2CC)n1Cc1ccc(-c2ccccc2-c2nnn[nH]2)cc1 [Compound 35]
